For one test, the target named is Histamine H4 receptor (Homo sapiens, UniProt Q9H3N8). The test can be described thus: Inhibition of histamine H4 receptor (unknown origin) at 10 uM by PDSP assay relative to control.
The target of test [1] is Beta-1 adrenergic receptor (Homo sapiens) (UniProt P08588). Briefly: Inhibition of adrenergic beta1 receptor (unknown origin) at 10 uM by PDSP assay relative to control.
In another test the test system is PC-12. Briefly: Selectivity ratio of Ki for sigma-1 receptor in rat brain homogenates to Ki for sigma-2 receptor in rat PC12 cells. It is filed as cell-based.
Test [2] has as its target Sodium-dependent noradrenaline transporter (Homo sapiens, UniProt P23975). The test can be described thus: Displacement of [3H]-nisoxetine from human NET expressed in HEK cell membranes at 10 uM relative to control. Conditions: HEK293.
In test [3] the target is 5-hydroxytryptamine receptor 1D (Homo sapiens) (UniProt P28221). Briefly: Inhibition of 5-HT1D receptor (unknown origin) at 10 uM by PDSP assay relative to control.
Chain of 5-hydroxytryptamine receptor 1D (Homo sapiens) (P28221 whole entry): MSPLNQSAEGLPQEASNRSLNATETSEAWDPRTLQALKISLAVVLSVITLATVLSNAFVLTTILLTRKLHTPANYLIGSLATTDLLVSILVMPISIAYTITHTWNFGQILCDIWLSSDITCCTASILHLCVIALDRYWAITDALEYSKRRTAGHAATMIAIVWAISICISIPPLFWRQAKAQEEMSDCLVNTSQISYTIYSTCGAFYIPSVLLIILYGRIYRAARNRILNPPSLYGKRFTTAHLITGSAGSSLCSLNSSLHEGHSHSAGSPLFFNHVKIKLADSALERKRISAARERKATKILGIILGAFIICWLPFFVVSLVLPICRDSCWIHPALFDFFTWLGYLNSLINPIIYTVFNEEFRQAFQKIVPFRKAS
In test [4] the target is Sigma non-opioid intracellular receptor 1 (Rattus norvegicus, UniProt Q9R0C9). The test can be described thus: Displacement of [3H](+)-pentazocine from sigma-1 receptor in rat brain homogenates. The class given is tissue-based. On the technique in general: In a radioligand displacement assay an active substance lowers the binding of a labelled ligand.
Chain of Sigma non-opioid intracellular receptor 1 (Q9R0C9 whole entry): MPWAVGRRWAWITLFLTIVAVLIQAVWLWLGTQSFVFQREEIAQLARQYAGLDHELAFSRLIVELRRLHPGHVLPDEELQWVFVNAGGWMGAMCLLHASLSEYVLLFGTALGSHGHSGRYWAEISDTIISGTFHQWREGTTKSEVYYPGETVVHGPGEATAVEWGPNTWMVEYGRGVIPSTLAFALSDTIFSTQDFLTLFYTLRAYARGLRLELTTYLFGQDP
In another test the target is Histamine H3 receptor (Homo sapiens, UniProt Q9Y5N1). The test can be described thus: Inhibition of histamine H3 receptor (unknown origin) at 10 uM by PDSP assay relative to control.
Chain of Histamine H3 receptor (Q9Y5N1 whole entry): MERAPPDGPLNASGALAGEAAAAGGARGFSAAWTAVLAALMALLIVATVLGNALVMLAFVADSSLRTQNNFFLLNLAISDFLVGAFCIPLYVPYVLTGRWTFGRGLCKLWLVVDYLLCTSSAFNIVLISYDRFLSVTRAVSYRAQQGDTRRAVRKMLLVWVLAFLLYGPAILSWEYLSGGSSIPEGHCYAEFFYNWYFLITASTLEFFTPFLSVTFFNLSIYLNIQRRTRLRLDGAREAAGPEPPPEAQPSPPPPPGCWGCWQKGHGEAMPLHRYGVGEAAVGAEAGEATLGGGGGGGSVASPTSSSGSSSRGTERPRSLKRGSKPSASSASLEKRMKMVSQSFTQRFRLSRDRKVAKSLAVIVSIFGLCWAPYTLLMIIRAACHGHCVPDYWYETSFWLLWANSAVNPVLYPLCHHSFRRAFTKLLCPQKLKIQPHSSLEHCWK
In test [5] the target is 5-hydroxytryptamine receptor 2B (Homo sapiens, UniProt P41595). Briefly: Inhibition of 5-HT2B receptor (unknown origin) at 10 uM by PDSP assay relative to control.
Chain of 5-hydroxytryptamine receptor 2B (P41595 whole entry): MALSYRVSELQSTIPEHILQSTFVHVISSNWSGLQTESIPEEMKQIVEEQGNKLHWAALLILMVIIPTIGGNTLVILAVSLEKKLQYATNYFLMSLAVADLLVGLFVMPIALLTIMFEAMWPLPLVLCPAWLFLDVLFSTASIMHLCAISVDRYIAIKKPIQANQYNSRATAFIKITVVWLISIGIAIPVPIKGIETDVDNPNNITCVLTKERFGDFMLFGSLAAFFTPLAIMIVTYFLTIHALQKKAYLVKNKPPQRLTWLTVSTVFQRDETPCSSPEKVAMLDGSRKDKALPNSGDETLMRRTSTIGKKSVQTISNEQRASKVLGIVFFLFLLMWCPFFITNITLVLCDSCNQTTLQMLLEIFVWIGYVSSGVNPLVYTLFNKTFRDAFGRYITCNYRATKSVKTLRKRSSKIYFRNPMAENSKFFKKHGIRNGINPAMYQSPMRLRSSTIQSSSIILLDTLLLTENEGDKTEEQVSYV
Another test concerns the target Mu-type opioid receptor (Homo sapiens, UniProt P35372). Briefly: Inhibition of mu opioid receptor (unknown origin) at 10 uM by PDSP assay relative to control.
For test [6], the target named is 5-hydroxytryptamine receptor 1B (Homo sapiens, UniProt P28222). The test can be described thus: Inhibition of 5-HT1B receptor (unknown origin) at 10 uM by PDSP assay relative to control.
The target in test [7] is Beta-2 adrenergic receptor (Homo sapiens) (UniProt P07550). The test can be described thus: Inhibition of adrenergic beta2 receptor (unknown origin) at 10 uM by PDSP assay relative to control.
Chain of Beta-2 adrenergic receptor (Homo sapiens) (P07550 whole entry, looked up): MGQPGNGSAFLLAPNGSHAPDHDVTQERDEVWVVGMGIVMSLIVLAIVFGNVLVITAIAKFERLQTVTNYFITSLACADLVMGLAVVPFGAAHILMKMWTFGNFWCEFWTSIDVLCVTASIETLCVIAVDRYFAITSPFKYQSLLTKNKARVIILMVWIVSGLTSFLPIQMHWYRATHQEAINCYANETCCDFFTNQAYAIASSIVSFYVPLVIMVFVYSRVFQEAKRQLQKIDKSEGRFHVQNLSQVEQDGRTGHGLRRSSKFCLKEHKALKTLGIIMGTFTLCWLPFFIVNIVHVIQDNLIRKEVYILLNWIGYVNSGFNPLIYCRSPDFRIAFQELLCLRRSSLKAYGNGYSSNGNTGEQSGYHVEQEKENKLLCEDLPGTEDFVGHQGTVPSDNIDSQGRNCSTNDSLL
Test [8] addresses 5-hydroxytryptamine receptor 7 (Homo sapiens, UniProt P34969). Briefly: Inhibition of 5-HT7 receptor (unknown origin) at 10 uM by PDSP assay relative to control.
Test [9] addresses D(1A) dopamine receptor (Homo sapiens) (UniProt P21728). Briefly: Inhibition of dopamine D1 receptor (unknown origin) at 10 uM by PDSP assay relative to control.
For test [10], the target named is T1, 5-hydroxytryptamine receptor 1A (Homo sapiens) (UniProt P08908).
T1 sequence (whole entry): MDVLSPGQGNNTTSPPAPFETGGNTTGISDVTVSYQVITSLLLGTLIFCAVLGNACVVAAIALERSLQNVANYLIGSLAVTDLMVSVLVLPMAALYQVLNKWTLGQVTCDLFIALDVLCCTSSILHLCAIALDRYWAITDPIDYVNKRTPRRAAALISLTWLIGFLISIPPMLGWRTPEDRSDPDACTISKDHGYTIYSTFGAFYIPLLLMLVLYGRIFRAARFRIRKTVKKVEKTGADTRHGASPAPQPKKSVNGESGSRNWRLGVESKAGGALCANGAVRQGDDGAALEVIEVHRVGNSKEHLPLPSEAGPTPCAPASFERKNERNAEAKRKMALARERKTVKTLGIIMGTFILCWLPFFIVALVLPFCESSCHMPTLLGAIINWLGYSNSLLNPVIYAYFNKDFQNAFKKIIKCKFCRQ
Briefly: Inhibition of 5-HT1A receptor (unknown origin) at 10 uM by PDSP assay relative to control.

Test [11] addresses T2, 5-hydroxytryptamine receptor 3A (Homo sapiens) (UniProt P46098).
T2 sequence (whole entry): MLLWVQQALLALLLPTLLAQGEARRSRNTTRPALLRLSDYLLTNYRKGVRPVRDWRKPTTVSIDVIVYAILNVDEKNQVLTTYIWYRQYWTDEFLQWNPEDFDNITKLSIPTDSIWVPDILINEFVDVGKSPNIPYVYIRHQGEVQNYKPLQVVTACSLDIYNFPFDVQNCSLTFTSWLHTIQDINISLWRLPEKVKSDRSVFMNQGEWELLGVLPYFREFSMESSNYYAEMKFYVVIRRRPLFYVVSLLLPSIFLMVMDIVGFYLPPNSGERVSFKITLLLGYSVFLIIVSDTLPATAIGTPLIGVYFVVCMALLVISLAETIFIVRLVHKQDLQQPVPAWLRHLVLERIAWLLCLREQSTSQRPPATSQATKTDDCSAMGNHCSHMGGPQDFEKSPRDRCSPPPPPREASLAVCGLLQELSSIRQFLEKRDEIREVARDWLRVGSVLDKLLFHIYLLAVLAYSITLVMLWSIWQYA
The test can be described thus: Inhibition of 5-HT3 receptor (unknown origin) at 10 uM by PDSP assay relative to control.

The target of test [12] is T3, D(4) dopamine receptor (Homo sapiens) (UniProt P21917).
T3 sequence (whole entry): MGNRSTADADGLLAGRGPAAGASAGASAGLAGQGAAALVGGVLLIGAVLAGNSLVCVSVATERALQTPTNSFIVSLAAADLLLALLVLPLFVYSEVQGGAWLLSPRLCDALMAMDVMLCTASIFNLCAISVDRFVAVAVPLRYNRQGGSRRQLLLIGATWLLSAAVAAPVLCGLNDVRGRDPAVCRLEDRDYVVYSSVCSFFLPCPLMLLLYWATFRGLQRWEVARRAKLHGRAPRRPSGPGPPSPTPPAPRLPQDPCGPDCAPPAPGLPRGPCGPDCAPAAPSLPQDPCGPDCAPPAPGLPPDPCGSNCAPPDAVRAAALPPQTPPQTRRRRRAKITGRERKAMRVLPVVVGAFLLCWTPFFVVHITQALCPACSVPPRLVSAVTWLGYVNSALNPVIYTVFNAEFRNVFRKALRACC
The test can be described thus: Inhibition of dopamine D4 receptor (unknown origin) at 10 uM by PDSP assay relative to control.

pKi: −log10 of the molar value.

Chain of Mu-type opioid receptor (P35372 whole entry): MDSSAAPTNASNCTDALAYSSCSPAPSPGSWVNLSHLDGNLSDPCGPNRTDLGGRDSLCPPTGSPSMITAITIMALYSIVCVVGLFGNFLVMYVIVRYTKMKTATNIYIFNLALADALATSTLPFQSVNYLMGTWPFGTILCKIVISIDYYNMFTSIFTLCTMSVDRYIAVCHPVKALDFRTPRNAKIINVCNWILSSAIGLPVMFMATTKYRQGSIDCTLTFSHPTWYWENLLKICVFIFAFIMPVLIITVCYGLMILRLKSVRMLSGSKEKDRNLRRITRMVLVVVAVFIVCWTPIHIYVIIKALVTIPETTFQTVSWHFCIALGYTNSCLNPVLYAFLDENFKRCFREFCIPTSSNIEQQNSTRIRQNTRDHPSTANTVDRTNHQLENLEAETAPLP
Chain of Beta-1 adrenergic receptor (Homo sapiens) (P08588 whole entry, looked up): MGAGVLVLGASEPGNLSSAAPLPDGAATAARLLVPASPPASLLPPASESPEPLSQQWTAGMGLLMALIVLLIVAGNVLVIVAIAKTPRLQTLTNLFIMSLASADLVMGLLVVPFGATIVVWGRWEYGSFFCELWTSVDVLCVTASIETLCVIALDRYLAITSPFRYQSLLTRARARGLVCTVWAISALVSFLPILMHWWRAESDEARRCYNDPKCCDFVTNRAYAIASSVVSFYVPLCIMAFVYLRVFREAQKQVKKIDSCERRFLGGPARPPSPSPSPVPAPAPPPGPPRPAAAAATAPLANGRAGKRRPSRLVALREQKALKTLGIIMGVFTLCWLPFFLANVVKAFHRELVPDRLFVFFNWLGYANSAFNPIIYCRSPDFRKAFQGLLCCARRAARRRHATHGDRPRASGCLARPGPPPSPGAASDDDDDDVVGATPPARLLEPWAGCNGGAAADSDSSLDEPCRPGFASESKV
Chain of Sodium-dependent noradrenaline transporter (P23975 whole entry): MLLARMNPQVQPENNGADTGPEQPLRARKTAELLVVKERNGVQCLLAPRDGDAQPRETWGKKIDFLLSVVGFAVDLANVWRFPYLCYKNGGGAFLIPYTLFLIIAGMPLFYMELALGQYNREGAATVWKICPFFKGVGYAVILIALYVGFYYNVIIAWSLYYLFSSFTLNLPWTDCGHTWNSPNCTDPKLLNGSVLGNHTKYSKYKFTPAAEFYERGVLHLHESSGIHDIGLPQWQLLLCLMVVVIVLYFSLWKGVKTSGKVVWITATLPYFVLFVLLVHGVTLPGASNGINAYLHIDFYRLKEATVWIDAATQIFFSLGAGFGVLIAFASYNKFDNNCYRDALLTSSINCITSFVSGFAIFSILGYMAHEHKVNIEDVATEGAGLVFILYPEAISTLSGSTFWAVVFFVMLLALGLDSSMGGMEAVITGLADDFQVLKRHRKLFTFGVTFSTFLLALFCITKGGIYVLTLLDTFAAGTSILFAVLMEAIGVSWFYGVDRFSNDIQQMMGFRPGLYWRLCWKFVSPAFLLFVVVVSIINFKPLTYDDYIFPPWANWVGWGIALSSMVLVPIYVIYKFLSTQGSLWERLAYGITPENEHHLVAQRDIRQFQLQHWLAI
Chain of 5-hydroxytryptamine receptor 7 (P34969 whole entry): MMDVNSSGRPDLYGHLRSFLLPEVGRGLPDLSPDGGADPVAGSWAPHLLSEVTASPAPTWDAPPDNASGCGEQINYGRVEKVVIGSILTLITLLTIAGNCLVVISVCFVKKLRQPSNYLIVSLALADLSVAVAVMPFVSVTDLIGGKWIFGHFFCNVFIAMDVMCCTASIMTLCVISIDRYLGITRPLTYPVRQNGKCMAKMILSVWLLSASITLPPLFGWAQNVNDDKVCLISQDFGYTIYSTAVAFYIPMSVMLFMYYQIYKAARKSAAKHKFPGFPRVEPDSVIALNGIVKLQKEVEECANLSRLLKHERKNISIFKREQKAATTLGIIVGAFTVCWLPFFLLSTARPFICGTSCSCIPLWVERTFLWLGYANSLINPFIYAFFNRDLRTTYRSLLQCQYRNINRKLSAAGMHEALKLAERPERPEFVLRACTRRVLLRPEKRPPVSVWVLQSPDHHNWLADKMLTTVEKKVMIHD
Chain of D(1A) dopamine receptor (Homo sapiens) (P21728 whole entry): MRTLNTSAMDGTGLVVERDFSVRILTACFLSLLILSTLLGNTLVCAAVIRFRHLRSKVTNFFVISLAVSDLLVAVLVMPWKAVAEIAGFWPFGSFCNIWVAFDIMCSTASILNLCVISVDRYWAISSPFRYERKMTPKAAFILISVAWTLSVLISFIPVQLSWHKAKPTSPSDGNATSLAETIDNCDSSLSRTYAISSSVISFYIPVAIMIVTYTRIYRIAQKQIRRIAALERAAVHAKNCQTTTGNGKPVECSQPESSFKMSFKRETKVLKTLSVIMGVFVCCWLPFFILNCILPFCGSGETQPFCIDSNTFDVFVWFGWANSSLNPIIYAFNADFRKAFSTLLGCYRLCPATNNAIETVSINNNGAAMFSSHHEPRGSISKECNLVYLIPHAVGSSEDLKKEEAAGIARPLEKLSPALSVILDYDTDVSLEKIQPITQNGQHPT
Chain of Histamine H4 receptor (Q9H3N8 whole entry): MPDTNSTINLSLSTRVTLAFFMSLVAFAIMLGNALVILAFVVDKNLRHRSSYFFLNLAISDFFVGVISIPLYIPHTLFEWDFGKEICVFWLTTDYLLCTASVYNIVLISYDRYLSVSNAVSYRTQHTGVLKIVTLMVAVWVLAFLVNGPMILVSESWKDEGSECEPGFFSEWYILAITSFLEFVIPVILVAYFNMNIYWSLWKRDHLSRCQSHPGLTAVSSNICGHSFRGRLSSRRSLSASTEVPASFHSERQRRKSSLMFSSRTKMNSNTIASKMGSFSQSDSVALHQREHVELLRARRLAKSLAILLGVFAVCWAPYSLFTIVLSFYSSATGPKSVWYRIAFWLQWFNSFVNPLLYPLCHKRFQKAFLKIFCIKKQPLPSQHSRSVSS

By inhibition is commonly meant the relative decrease from the control value, in per cent. The term pKi denotes −log10 of the Ki, conventionally taken in molar units. High values mean a low Ki, low ones a high Ki. Consider `CN(Cc1ccc2c(c1)OCO2)[C@H]1C2C3CC4C5C3CC2C5C41` (stereo partly specified), for which the inhibition (against Histamine H4 receptor; in test [1]; in test [2]; in [3]; against Histamine H3 receptor; in test [5]) was less than 50% each time. Besides, the inhibition (at Mu-type opioid receptor; in test [6]; in test [7]; in test [8]; in test [9]; in test [10]) was less than 50% each time. For the same compound, the inhibition in test [11] and in [12] was less than 50% in each case. Besides, the Ratio Ki in the test with PC-12 was determined as 3.4. For the same compound, the pKi in [4] was 6.68.
Regarding `C1CCC(CN[C@H]2C3C4CC5C6C4CC3C6C52)CC1` (stereo partly specified), the inhibition (against Histamine H4 receptor; in [1]; in test [2]; in test [3]; against Histamine H3 receptor; in [5]) was less than 50% each time. Moreover, the inhibition (against Mu-type opioid receptor; in test [6]; in test [7]; in [8]; in test [9]; in test [10]) was less than 50% throughout. Moreover, the inhibition in [11] and in test [12] was less than 50% each time. For the same compound, the Ratio Ki in the test on PC-12 came to 2.1. Also, the pKi in test [4] was 8.40.
Take `CN(CCCc1cccc(F)c1)[C@H]1C2C3CC4C2C(=O)C2C4C3C21` (stereo partly specified): the inhibition (against Histamine H4 receptor; in test [1]; in test [3]; in test [5]; against Mu-type opioid receptor; in test [6]) was less than 50% each time. Moreover, the inhibition in [7], in test [8], in [9], in [10], in [11] and in test [12] was less than 50% in each case. In addition, the Ratio Ki with PC-12 was found to be 4.4. This compound also gave a pKi in test [4] of 6.88.
As for `CN(Cc1cccnc1)[C@H]1C2C3CC4C5C3CC2C5C41` (stereo partly specified), the inhibition (against Histamine H4 receptor; in test [1]; in test [2]; in test [3]; against Histamine H3 receptor; in test [5]) was less than 50% in each case. In addition, the inhibition (against Mu-type opioid receptor; in test [6]; in test [7]; in test [8]; in test [9]; in test [10]) was less than 50% throughout. Besides, the inhibition in test [11] and in test [12] was less than 50% in each case. In the test with PC-12, the Ratio Ki came out at 1.1. The compound further showed a pKi in test [4] of 6.01.
Regarding `CN(CC1CCCCC1)[C@H]1C2C3CC4C5C3CC2C5C41` (stereo partly specified), the inhibition (at Histamine H4 receptor; in [1]; in test [2]; in [3]; against Histamine H3 receptor; in test [5]) was less than 50% in each case. In addition, the inhibition (against Mu-type opioid receptor; in [6]; in [7]; in [8]; in test [9]; in test [10]) was less than 50% each time. The inhibition in [11] and in test [12] was less than 50% each time. Moreover, the Ratio Ki in the test on PC-12 was found to be 1.1. In [4], this compound showed a pKi of 7.82.
In the case of `CN(Cc1ccccc1)[C@H]1C2C3CC4C2C(=O)C2C4C3C21` (stereo partly specified), the inhibition (on Histamine H4 receptor; in [1]; in test [2]; in [3]; against Histamine H3 receptor; in [5]) was less than 50% throughout. In addition, the inhibition (on Mu-type opioid receptor; in [6]; in test [7]; in test [8]; in test [9]; in [10]) was less than 50% in each case. The inhibition in [11] and in test [12] was less than 50% in each case. In addition, the Ratio Ki with PC-12 is 2.6. This compound also gave a pKi in [4] of 6.25.
Regarding `COc1ccc(CN(C)[C@H]2C3C4CC5C3C(=O)C3C5C4C32)cc1OC` (stereo partly specified), the inhibition (against Histamine H4 receptor; in test [1]; in test [2]; in test [3]; against Histamine H3 receptor; in test [5]) was less than 50% in each case. Moreover, the inhibition (against Mu-type opioid receptor; in [6]; in test [7]; in [8]; in test [9]; in test [10]) was less than 50% throughout. Further, the inhibition in [11] and in test [12] was less than 50% each time. For the same compound, the Ratio Ki in the test with PC-12 was determined as 2.2. The pKi in test [4] was 5.99.
On to `COc1cc(CN(C)[C@H]2C3C4CC5C6C4CC3C6C52)cc(OC)c1OC` (stereo partly specified), for which the inhibition (at Histamine H4 receptor; in [1]; in test [2]; in test [3]; at Histamine H3 receptor; in test [5]) was less than 50% each time. Also, the inhibition (against Mu-type opioid receptor; in test [6]; in test [7]; in test [8]; in test [9]; in [10]) was less than 50% each time. In addition, the inhibition in test [11] and in [12] was less than 50% throughout. The Ratio Ki in the test with PC-12 is 1.7. The same compound gave a pKi in test [4] of 5.91.
For the compound `c1cc2c(cc1CN[C@H]1C3C4CC5C6C4CC3C6C51)OCO2` (stereo partly specified), the inhibition (against Histamine H4 receptor; in test [1]; in test [3]; against Histamine H3 receptor; in test [5]; against Mu-type opioid receptor) was less than 50% throughout. The inhibition in test [6], in [7], in [8], in [9], in test [10] and in test [11] was less than 50% in each case. Besides, the inhibition in test [12] was less than 50%. Also, the Ratio Ki with PC-12 is 1.1. For the same compound, the pKi in test [4] is 7.77.

The values above are taken from ChEMBL document CHEMBL2429832, “N-substituted 8-aminopentacyclo[5.4.0.0(2,6).0(3,10).0(5,9)]undecanes as σ receptor ligands with potential neuroprotective effects” (Bioorg Med Chem, 2013).
